Source: PubChem BioAssay (NCI)
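Tested at 5 concentrations; 48 h exposure; 96-well plates; endpoints linearly interpolated, else capped at highest concentration. Definition used: TGI = concentration required for complete inhibition of growth.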 *1 amine or outer side, *2 acyl side, *3 side chain or, on linkers, in order; H or OH if unused. Where a SMILES comes first, the peptide text is derived from it. [ ]: non-standard residue; d: D form. The star is where a group is joined. X31 = CC(=O)N(C)SCC(N[*:1])C(=O)[*:2]; Cbz = O=C(OCc1ccccc1)*; Bn = c1ccc(C*)cc1

Key:
Test in all cases: NCI-60 cell line screen, 48 h
CCRF-CEM leukemia = system: CCRF-CEM leukemia
SW-620 colon = system: SW-620 colon
NCI-H522 lung = system: NCI-H522 lung
BT-549 breast = system: BT-549 breast
ACHN renal = system: ACHN renal
SN12C renal = system: SN12C renal
MOLT-4 leukemia = system: MOLT-4 leukemia
HL-60(TB) leukemia = system: HL-60(TB) leukemia
MCF7 breast = system: MCF7 breast
SK-MEL-28 melanoma = system: SK-MEL-28 melanoma
SNB-75 CNS = system: SNB-75 CNS
LOX IMVI melanoma = system: LOX IMVI melanoma
SF-295 CNS = system: SF-295 CNS
HOP-92 NSCLC = system: HOP-92 NSCLC
HT29 colon = system: HT29 colon
RXF 393 renal = system: RXF 393 renal
T-47D breast = system: T-47D breast
NCI-H460 lung = system: NCI-H460 lung
EKVX NSCLC = system: EKVX NSCLC
MDA-MB-435 = system: MDA-MB-435
UACC-62 melanoma = system: UACC-62 melanoma
NCI-H23 lung = system: NCI-H23 lung
SF-268 CNS = system: SF-268 CNS
SK-OV-3 ovarian = system: SK-OV-3 ovarian
NCI-H226 lung = system: NCI-H226 lung
COLO 205 colon = system: COLO 205 colon
IGROV1 ovarian = system: IGROV1 ovarian
MALME-3M melanoma = system: MALME-3M melanoma
OVCAR-4 ovarian = system: OVCAR-4 ovarian
M14 melanoma = system: M14 melanoma
PC-3 prostate = system: PC-3 prostate
OVCAR-3 ovarian = system: OVCAR-3 ovarian
RPMI-8226 leukemia = system: RPMI-8226 leukemia
KM12 colon = system: KM12 colon
SNB-19 CNS = system: SNB-19 CNS
SF-539 CNS = system: SF-539 CNS
SK-MEL-5 melanoma = system: SK-MEL-5 melanoma
NCI/ADR-RES ovarian = system: NCI/ADR-RES ovarian
786-0 renal = system: 786-0 renal
TK-10 renal = system: TK-10 renal
HS 578T breast = system: HS 578T breast
K-562 leukemia = system: K-562 leukemia
UACC-257 melanoma = system: UACC-257 melanoma
A549 NSCLC = system: A549 NSCLC
HCC-2998 colon = system: HCC-2998 colon
SR leukemia = system: SR leukemia
DU-145 prostate = system: DU-145 prostate
CAKI-1 renal = system: CAKI-1 renal
MDA-N = system: MDA-N
UO-31 renal = system: UO-31 renal
OVCAR-5 ovarian = system: OVCAR-5 ovarian
HCT-15 colon = system: HCT-15 colon
HCT-116 colon = system: HCT-116 colon
SK-MEL-2 melanoma = system: SK-MEL-2 melanoma
MDA-MB-231 breast = system: MDA-MB-231 breast
HOP-62 NSCLC = system: HOP-62 NSCLC
U251 CNS = system: U251 CNS
OVCAR-8 ovarian = system: OVCAR-8 ovarian
A498 renal = system: A498 renal

In the case of CCOC(=O)C(C(=S)SC)c1nn2c(=O)cc(C)nc2s1 (stereo unspecified), the TGI (CCRF-CEM leukemia) is reported as 77.5 µM, the TGI (SW-620 colon) is reported as 37.2 µM and the TGI (NCI-H522 lung) is reported as 42.5 µM. It also gave a TGI (BT-549 breast) of 34.2 µM, a TGI (ACHN renal) of 37.8 µM and a TGI (SN12C renal) of 34.2 µM. For the same compound, the TGI (MOLT-4 leukemia) was 44.2 µM, the TGI (HL-60(TB) leukemia) was 35.3 µM and the TGI (MCF7 breast) was 33.1 µM. The TGI (SK-MEL-28 melanoma) was 34.8 µM, the TGI (SNB-75 CNS) was 41.3 µM and the TGI (LOX IMVI melanoma) was 29.4 µM. The TGI (SF-295 CNS) was 44.6 µM, the TGI (HOP-92 NSCLC) was 43.9 µM and the TGI (HT29 colon) was 36.9 µM. For the same compound, the TGI (RXF 393 renal) was 39.8 µM, the TGI (T-47D breast) was 42.6 µM and the TGI (NCI-H460 lung) was 35.6 µM. For the same compound, the TGI (EKVX NSCLC) was 34.3 µM, the TGI (MDA-MB-435) was 32.4 µM and the TGI (UACC-62 melanoma) was 47.6 µM. The TGI (NCI-H23 lung) was 39 µM, the TGI (SF-268 CNS) was 34 µM and the TGI (SK-OV-3 ovarian) was 47.4 µM. For the same compound, the TGI (NCI-H226 lung) was 34.6 µM, the TGI (COLO 205 colon) was 47.5 µM and the TGI (IGROV1 ovarian) was 38.1 µM. The TGI (MALME-3M melanoma) was 31 µM, the TGI (OVCAR-4 ovarian) was 58.4 µM and the TGI (M14 melanoma) was 29.8 µM. For the same compound, the TGI (PC-3 prostate) was 37.3 µM, the TGI (OVCAR-3 ovarian) was 34.8 µM and the TGI (RPMI-8226 leukemia) was 48.7 µM. The TGI (KM12 colon) was 65.3 µM, the TGI (SNB-19 CNS) was 43.7 µM and the TGI (SF-539 CNS) was 36 µM. The TGI (SK-MEL-5 melanoma) was 35.1 µM, the TGI (NCI/ADR-RES ovarian) was 54.8 µM and the TGI (786-0 renal) was 36.1 µM. The TGI (TK-10 renal) was 61.9 µM, the TGI (HS 578T breast) was 44.9 µM and the TGI (K-562 leukemia) was 34.9 µM. The TGI (UACC-257 melanoma) was 44.2 µM, the TGI (A549 NSCLC) was 37 µM and the TGI (HCC-2998 colon) was 47.2 µM. For the same compound, the TGI (SR leukemia) was 47.1 µM, the TGI (DU-145 prostate) was 32.8 µM and the TGI (CAKI-1 renal) was 37.3 µM. The TGI (MDA-N) was 29.8 µM, the TGI (UO-31 renal) was 40 µM and the TGI (OVCAR-5 ovarian) was 38.7 µM. For the same compound, the TGI (HCT-15 colon) was 35.3 µM, the TGI (HCT-116 colon) was 34.3 µM and the TGI (SK-MEL-2 melanoma) was 41.5 µM. For the same compound, the TGI (MDA-MB-231 breast) was 37.9 µM, the TGI (HOP-62 NSCLC) was 42.7 µM and the TGI (U251 CNS) was 30.6 µM. The TGI (OVCAR-8 ovarian) was 35.5 µM.
With CC(=O)N(C)SCC(NC(=O)C(Cc1ccccc1)NC(=O)OCc1ccccc1)C(=O)NC(Cc1ccccc1)C(=O)NC(Cc1c[nH]c2ccccc12)C(=O)NC(CCCCNC(=O)OCc1ccccc1)C(=O)NC(C(=O)NC(CSN(C)C(C)=O)C(=O)NC(C(N)=O)C(C)OCc1ccccc1)C(C)OCc1ccccc1 (stereo unspecified) (Cbz-F[X31]FWK(Cbz)T(Bn)[X31]T(Bn)-NH2; configuration not given here) the TGI (CCRF-CEM leukemia) was > 100 µM, the TGI (SW-620 colon) was > 100 µM and the TGI (BT-549 breast) was > 100 µM. The TGI (ACHN renal) was > 100 µM, the TGI (SN12C renal) was > 100 µM and the TGI (MOLT-4 leukemia) was > 100 µM. The TGI (HL-60(TB) leukemia) was > 100 µM, the TGI (MCF7 breast) was > 100 µM and the TGI (SK-MEL-28 melanoma) was > 100 µM. For the same compound, the TGI (SNB-75 CNS) was > 100 µM, the TGI (LOX IMVI melanoma) was > 100 µM and the TGI (SF-295 CNS) was > 100 µM. For the same compound, the TGI (HOP-92 NSCLC) was > 100 µM, the TGI (HT29 colon) was > 100 µM and the TGI (RXF 393 renal) was > 100 µM. The TGI (T-47D breast) was > 100 µM, the TGI (NCI-H460 lung) was > 100 µM and the TGI (EKVX NSCLC) was > 100 µM. For the same compound, the TGI (MDA-MB-435) was > 100 µM, the TGI (UACC-62 melanoma) was > 100 µM and the TGI (NCI-H23 lung) was > 100 µM. The TGI (SF-268 CNS) was > 100 µM, the TGI (SK-OV-3 ovarian) was > 100 µM and the TGI (NCI-H226 lung) was > 100 µM. The TGI (COLO 205 colon) was > 100 µM, the TGI (IGROV1 ovarian) was > 100 µM and the TGI (MALME-3M melanoma) was > 100 µM. The TGI (OVCAR-4 ovarian) was > 100 µM, the TGI (M14 melanoma) was > 100 µM and the TGI (PC-3 prostate) was > 100 µM. The TGI (OVCAR-3 ovarian) was > 100 µM, the TGI (RPMI-8226 leukemia) was > 100 µM and the TGI (KM12 colon) was > 100 µM. For the same compound, the TGI (SNB-19 CNS) was > 100 µM, the TGI (SF-539 CNS) was > 100 µM and the TGI (SK-MEL-5 melanoma) was > 100 µM. The TGI (NCI/ADR-RES ovarian) was > 100 µM, the TGI (786-0 renal) was > 100 µM and the TGI (TK-10 renal) was > 100 µM. For the same compound, the TGI (HS 578T breast) was > 100 µM, the TGI (K-562 leukemia) was > 100 µM and the TGI (UACC-257 melanoma) was > 100 µM. For the same compound, the TGI (A549 NSCLC) was > 100 µM, the TGI (HCC-2998 colon) was > 100 µM and the TGI (SR leukemia) was > 100 µM. The TGI (DU-145 prostate) was > 100 µM, the TGI (MDA-N) was > 100 µM and the TGI (UO-31 renal) was > 100 µM. For the same compound, the TGI (OVCAR-5 ovarian) was > 100 µM, the TGI (HCT-15 colon) was > 100 µM and the TGI (HCT-116 colon) was > 100 µM. For the same compound, the TGI (SK-MEL-2 melanoma) was > 100 µM, the TGI (MDA-MB-231 breast) was > 100 µM and the TGI (HOP-62 NSCLC) was > 100 µM. The TGI (U251 CNS) was > 100 µM and the TGI (OVCAR-8 ovarian) was > 100 µM.
In the case of COc1cc2c(cc1OC)C(=O)/C(=C/c1cc(OC)c(OC)c(OC)c1)C2, the TGI (CCRF-CEM leukemia) is reported as > 100 µM, the TGI (NCI-H522 lung) is reported as 51 µM and the TGI (BT-549 breast) is reported as > 100 µM. For the same compound, the TGI (SN12C renal) was > 100 µM, the TGI (MOLT-4 leukemia) was > 100 µM and the TGI (HL-60(TB) leukemia) was > 100 µM. For the same compound, the TGI (MCF7 breast) was > 100 µM, the TGI (A498 renal) was > 100 µM and the TGI (SK-MEL-28 melanoma) was > 100 µM. The TGI (SNB-75 CNS) was > 100 µM, the TGI (SF-295 CNS) was > 100 µM and the TGI (HOP-92 NSCLC) was > 100 µM. The TGI (HT29 colon) was > 100 µM, the TGI (RXF 393 renal) was > 100 µM and the TGI (T-47D breast) was > 100 µM. The TGI (NCI-H460 lung) was > 100 µM, the TGI (MDA-MB-435) was > 100 µM and the TGI (UACC-62 melanoma) was > 100 µM. For the same compound, the TGI (NCI-H23 lung) was > 100 µM, the TGI (SK-OV-3 ovarian) was > 100 µM and the TGI (NCI-H226 lung) was > 100 µM. The TGI (COLO 205 colon) was > 100 µM, the TGI (IGROV1 ovarian) was > 100 µM and the TGI (MALME-3M melanoma) was > 100 µM. The TGI (OVCAR-4 ovarian) was > 100 µM, the TGI (M14 melanoma) was > 100 µM and the TGI (PC-3 prostate) was > 100 µM. For the same compound, the TGI (OVCAR-3 ovarian) was > 100 µM, the TGI (RPMI-8226 leukemia) was > 100 µM and the TGI (KM12 colon) was > 100 µM. For the same compound, the TGI (SNB-19 CNS) was > 100 µM, the TGI (SK-MEL-5 melanoma) was > 100 µM and the TGI (NCI/ADR-RES ovarian) was > 100 µM. For the same compound, the TGI (HS 578T breast) was > 100 µM, the TGI (K-562 leukemia) was > 100 µM and the TGI (SR leukemia) was > 100 µM. For the same compound, the TGI (DU-145 prostate) was > 100 µM, the TGI (CAKI-1 renal) was > 100 µM and the TGI (MDA-N) was > 100 µM. The TGI (UO-31 renal) was > 100 µM, the TGI (OVCAR-5 ovarian) was > 100 µM and the TGI (HCT-15 colon) was > 100 µM. The TGI (SK-MEL-2 melanoma) was > 100 µM, the TGI (MDA-MB-231 breast) was > 100 µM and the TGI (HOP-62 NSCLC) was > 100 µM. The TGI (U251 CNS) was > 100 µM and the TGI (OVCAR-8 ovarian) was > 100 µM.
